Assays:
HEK293 cells = assay type: cell-based, human
Experimental: (§1) AGS cells were grown in RPMI medium containing 10% FBS and 1% PS. HEK293 and RAW264.7 cells were grown in DMEM medium containing 10% FBS and 1% PS under conditions of 37° C., 5% CO2 and 95% air.
(§2) In order to evaluate toxicity to each cell, the sample was incubated in each cell (1×10^5 cells/well) cultured in the above manner for 24 hours, and then cytotoxicity to each cell was examined by using the MTT assay.

AGS cells [1] = experiment: Colony formation assay of AGS cells; assay type: cell-based, human; settings: 5-FU positive control
Experimental: Live/dead cells were stained using a live/dead cell staining kit (Thermo Fisher Scientific, Rockford, IL, USA). Specifically, apoptosis was induced by processing AGS cells (2×10^5 cells/well) as a sample for 24 hours. After staining the cells for 30 minutes using the staining kit, the cells were observed using a Leica DM IRB fluorescence microscope (Wetzlar, Germany). In addition, for the colony formation assay, AGS cells were cultured at a density of 500 cells/well and then processed with the sample. Then, the cells were stained with 0.5% crystal violet (Sigma-Aldrich, St. Louis, MO, USA) for 15 minutes […], and then the stained colonies were observed and quantified using ImageJ.

AGS cells [2] = experiment: Western blot analysis of AGS cells; assay type: cell-based, human
Experimental: Mitochondria of AGS cells were extracted using an extraction kit (Abcam, Cambridge, MA, USA). According to the instructions for using the kit, the AGS cells were washed with cold PBS and homogenized in a cold glass vortex mixer. For mitochondrial-rich supernatants, the homogenates were centrifuged at 1000 rpm for 10 minutes at 4° C. For whole protein extraction, AGS cells were processed with samples at various concentrations for 24 hours. The cells were dissolved using Pierce™ RIPA buffer (Thermo Fisher Scientific, Rockford, IL, USA) together with protease inhibitor cocktail (GenDEPOT, TX, USA). The cell-dissolved solution formed in the above manner was centrifuged at 12,000 rpm for 20 minutes. The protein was loaded into a 10% SDS-PAGE gel using a protein gel electrophoresis chamber system and transferred to a PVDF membrane (Thermo Fisher Scientific, Rockford, IL, USA). A PBST solution containing 5% skim milk was used to block the membrane at 25° C. for 1 hour. Then, the membrane was incubated overnight at 4° C. with primary antibodies. Finally, the membrane was incubated with the secondary antibodies at 25° C. for 1 hour, and a protein band was detected using West-Q Pico ECL Solution (GenDEPOT, TX, USA). The results were quantified using ImageJ software.

AGS cells [3] = experiment: ATP fluorescence assay in AGS cells; assay type: cell-based, human
From the text: The ATP degree of the sample-processed AGS cells were detected according to the manufacturer's instructions by using an ATP fluorescence assay kit (Biovision, Milpitas, CA, USA).

AGS cells [4] = experiment: Hoechst33258 and PI staining; assay type: cell-based, human
Experimental: AGS cells (1×10^5 cells) were seeded and maintained for 24 hours. In order to evaluate the percentage of apoptotic cells, Hoechst33258 or PI (Thermo Fisher Scientific, Rockford, IL, USA) was added to the AGS cells processed with the sample. After 30 minutes, the cells were observed using the fluorescence microscope (Leica DM IRB).

[5] = design: species or system mice; settings: mouse, in vivo
Experimental: Male nude mice (CAnN.Cg-Foxn1-nu, 4 weeks old, 20 g to 22 g) were purchased from OrientBio (Seongnam, Republic of Korea). The mice were placed in a chamber with conditions maintained at 23° C. and 50% humidity with a period of 12 hours of light and 12 hours of darkness. All animal experiments were conducted according to the National Institutes of Health's Laboratory Animal Care and Use Guidelines (NIH Publications No. 8023, revised 1996) and the Kyung Hee University's Animal Care and Use Guidelines ([…]-441, approval data: Sep. 28, 2021). […] The control group was administered with only 0.9% of general saline during this period. Body weights and tumor volumes of the mice were measured daily in all mice during the study period. All mice were euthanized after the end of the experiments. Blood, liver, spleen, kidney, and tumor tissues were extracted and weighed. In order to obtain the protein of tumor tissue, a portion of the tissue was processed with RIPA buffer containing a protease inhibitor cocktail. Then, the expression degree of a specific protein (determined by Western blot) was determined. […] Fuji Dri-Chem analyzer (3500, Fuji Photo Film Co., Osaka, Japan) was used to measure alanine aminotransferase (ALT), aspartate aminotransferase (AST), total bilirumin (T-Bili), total protein (TP), albumin (Alb), albumin/globulin (A/G) ratio, total cholesterol (T-Chol), total triglyceride (TG), glucose (GLU), and blood urea nitrogen (BUN) values.

[6] = system: AGS xenograft tumor tissue; experiment: IHC staining of tumor tissue; assay type: in vivo; settings: tumor tissue of administered mice
Experimental: The tumor tissue was fixed with 10% formalin and embedded with paraffin. Immunohistochemical (IHC) staining was performed using a mouse and rabbit-specific HRP/DAB (ABC) detection IHC kit (Abcam, Cambridge, MA, USA). The tissue was observed through an optical microscope, and the presence of a specific protein in the tumor tissue was determined to be the presence of a brown yellow color. The results were evaluated using ImageJ software.

AGS cells [7] = system: AGS cells
Experimental: as §1, §2

[8] = 8-paradol and CQ in combination, compared to 8-paradol solely
[9] = AGS cells, compared with control group

SMILES: CCCCCCCCCC(=O)CCc1ccc(O)c(OC)c1 [Purified Compound 3, 8-paradol]
- cytotoxicity to normal cells HEK293 (HEK293 cells): did not express significant cytotoxicity
- colony formation ability compared with 5-FU-processed AGS cells (AGS cells [1]): significantly inhibited
- Bcl-2 expression (AGS cells [2]; [8]): significantly increased
- expression degree of Bax, Cytochrome c and caspase-3/-9 (AGS cells [2]; [8]): significantly decreased
- conversion to LC3b and degradation of p62 (AGS cells [2]; 8-paradol combined with CQ 30 μM, compared to 8-paradol solely): more strongly induces
- expression of TOM20 and TIM23 (AGS cells [2]; 8-paradol in combination with CQ, compared to 8-paradol solely): increased
- amount of Bax, Cytochrome C and Cleaved-caspase-3/-9 (AGS cells [2]; AGS cells): increased
- amount of Bcl-2 (AGS cells [2]; AGS cells): decreased
- expression of p62 (AGS cells [2]; AGS cells): degraded p62 in a dose-dependent manner
- protein expression of Pink1 and Parkin (AGS cells [2]; AGS cells): significantly increased
- protein expression of TOM20 and TIM23 (AGS cells [2]; [9]): decreased
- conversion from LC3a to LC3b (AGS cells [2]; AGS cells, dose- and time-dependent): promoted
- Parkin concentration of the mitochondrial fraction (AGS cells [2]; AGS cells, mitochondrial fraction): increased
- ATP loss induced by 8-paradol (AGS cells [3]; 8-paradol with CQ (inhibiting mitophagy)): reduced
- ATP concentration in AGS cells (AGS cells [3]; AGS cells): reduced
- number of apoptotic cells (Hoechst and PI staining) (AGS cells [4]; 8-paradol and CQ together, compared to 8-paradol solely): significantly reduced
- fragmentation of nuclei and fluorescence of the condensate (Hoechst staining) (AGS cells [4]; AGS cells): became stronger in a dose-dependent manner
- number of killed cells (PI staining) (AGS cells [4]; [9]): increased the number of killed cells
- harm to the liver [5]: not harmful to the liver
- kidney damage [5]: did not cause kidney damage
- density of LC3 and caspase-3 in tumor tissue [6]: increased
- cytotoxicity to AGS cells (AGS cells [7]): killed in a concentration-dependent manner
- cell viability (AGS cells [7]; [8]): significantly improved
- IC50 (AGS cells [7]; read-out: IC50 on AGS cells, AGS cells, 24 hours, MTT assay): 14.9 ± 1.65 µM

— US20250144047A1, “PHARMACEUTICAL COMPOSITION FOR PREVENTING, AMELIORATING, OR TREATING CANCER CONTAINING 8-PARADOL” (KDBIO CORP., priority 2022, published 2025)
